Laboratory results as given in PMC6264310, “Synthesis and Pharmacological Activity of Diterpenylnaphthoquinone Derivatives” (Molecules, 2011).

Key:
MRC-5 fibroblasts = assay: Basal cytotoxicity, neutral red uptake assay, MRC-5; assay type: cell-based; conditions: Homo sapiens, MRC5, MRC-5, confluent cultures, 24 h, read-out: IC50 ± SEM, Fibroblasts
Experimental: (§1) 3.6. Cytotoxicity Assay
(§2) The human cell lines MRC-5 normal lung fibroblasts (ATCC CCL-171), AGS gastric adenocarcinoma cells (ATCC CRL-1739), and Hep G2 hepatocellular carcinoma cells (ATCC HB-8065) were obtained from the American Type Culture Collection (ATCC, Manassas, VA, USA). The cells were grown as monolayers in the following media: MRC-5 and Hep G2 in minimum essential Eagle’s medium (MEM), with Earle’s salts, 2.0 mM L-glutamine (Sigma Chemical Co.) and 2.2 g/L sodium bicarbonate (Sigma Chemical Co.), supplemented with 10% heat-inactivated fetal bovine serum (FBS), 100 IU/mL penicillin, and 100 µg/mL streptomycin in a humidified incubator with 5% CO2 in air at 37 °C. Cell passage was maintained between 10 and 16 for MRC-5 and between 79 and 82 for Hep G2 cells. The medium was changed every 2 days. Culture media, antibiotics, and FBS were obtained from Invitrogen Corp. Human gastric adenocarcinoma cells AGS (ATCC CRL-1739) were grown as monolayers in Ham F-12 medium containing 1.0 mM L-glutamine and 1.5 g/L sodium bicarbonate, supplemented with 10% heat-inactivated FBS, 100 IU/mL penicillin, and 100 µg/mL streptomycin in a humidified incubator with 5% CO2 in air at 37 °C. Cell passage was maintained between 42 and 48. The medium was changed every 2 days.
(§3) Confluent cultures of the different cell lines were treated with medium containing the compounds at concentrations ranging from 1 up to 1,000 µM. The antisecretory drug lansoprazole was used as reference compound. The substances were first dissolved in DMSO and then in the corresponding culture medium supplemented with 2% FBS. The final concentration of DMSO in the test medium and controls was 1%. The cells were exposed for 24 h to test medium with or without the compound (control). Each concentration was tested in quadruplicate together with the control and repeated three times in separate experiments. At the end of the incubation the neutral red uptake assay was performed.

[1] = test system: HCl-EtOH-induced gastric lesions; assay: HCl-EtOH-induced gastric lesion model in mice; assay type: in vivo; conditions: mice, single oral dose of 5 mg/kg; for inhibition in vivo at 5 mg/kg / responders at 5 mg/kg: Mus musculus, 1 h; for inhibition in vivo at 5 mg/kg: read-out: Protection (%); for responders at 5 mg/kg: read-out: Protected stomachs (number of stomachs completely protected from any visible bleeding) (converted)
Experimental: 3.5. HCl-EtOH-Induced Ulcer Model in Mice
The gastroprotective activity of the compounds was assessed in the EtOH-HCl-induced gastric lesion model. Male Swiss albino mice weighing 30 ± 3 g were used. The animals were fed on certified Champion diet with free access to water under standard conditions of 12 h dark-light period, 50% relative humidity, and 22 °C room temperature. The mice were randomly distributed into groups of 7–14 animals each and fasted for 24 h with free access to water before the oral administration of test samples by gavage. The purity of the tested compounds was higher than 95% by NMR analysis. To keep the animal numbers to a minimum, dose-response studies were performed with lapachol at 5, 10 and 50 mg/kg to set the conditions for single-dose comparison of gastroprotective effect. The tested compounds, lansoprazole (20 mg/kg) or the vehicle (12% Tween 80, 10 mL/kg) were administered orally by gavage. After 50 min, all groups were orally treated with 0.2 mL of a solution containing 60% EtOH-0.3 M HCl for gastric lesion induction. Animals were sacrificed by cervical dislocation 1 h after the administration of EtOH-HCl, and the stomachs excised and inflated by injection of 5% formalin (1 mL). The ulcerated stomachs were fixed in 5% formalin for 30 min and opened along the greater curvature. The length (mm) of each lesion was measured, and the lesion index expressed as the sum of the length of all lesions. Based on previous studies on the parent diterpenes, comparison of the new compounds 1–12 was carried out at a single oral dose of 5 mg/kg. The protocols were approved by the Universidad de Talca Institutional Animal Care and Use Committee, which follows the recommendations of the Canadian Council on Animal Care. Tween 80 and lansoprazole (>98% purity by HPLC) were purchased from Sigma-Aldrich.
Results were expressed as the mean ± SEM. In all experiments, statistical differences between several treatments and their respective control were determined by one-way ANOVA with Student-Newman-Keuls post-hoc test. The level of significance was set at P < 0.05.

AGS cells = assay: Basal cytotoxicity, neutral red uptake assay, AGS; assay type: cell-based; conditions: Homo sapiens, confluent cultures, 24 h, read-out: IC50 ± SEM, AGS
Experimental: as §1, §2, §3

Hep G2 cells = assay: Basal cytotoxicity, neutral red uptake assay, Hep G2; assay type: cell-based; conditions: Homo sapiens, HepG2, Hep G2, confluent cultures, 24 h, read-out: IC50 ± SEM, Hep G2
Experimental: as §1, §2, §3

[2] = Basal cytotoxicity, cell lines not separated in the text; assay type: cell-based; conditions: human; stated in text without cell line
Experimental: as §1
The human cell lines MRC-5 normal lung fibroblasts (ATCC CCL-171), AGS gastric adenocarcinoma cells (ATCC CRL-1739), and Hep G2 hepatocellular carcinoma cells (ATCC HB-8065) were obtained from the American Type Culture Collection (ATCC, Manassas, VA, USA). The cells were grown as monolayers in the following media: MRC-5 and Hep G2 in minimum essential Eagle’s medium (MEM), with Earle’s salts, 2.0 mM L-glutamine (Sigma Chemical Co.) and 2.2 g/L sodium bicarbonate (Sigma Chemical Co.), supplemented with 10% heat-inactivated fetal bovine serum (FBS), 100 IU/mL penicillin, and 100 µg/mL streptomycin in a humidified incubator with 5% CO2 in air at 37 °C. Cell passage was maintained between 10 and 16 for MRC-5 and between 79 and 82 for Hep G2 cells. The medium was changed every 2 days. Culture media, antibiotics, and FBS were obtained from Invitrogen Corp. Human gastric adenocarcinoma cells AGS (ATCC CRL-1739) were grown as monolayers in Ham F-12 medium containing 1.0 mM L-glutamine and 1.5 g/L sodium bicarbonate, supplemented with 10% heat-inactivated FBS, 100 IU/mL penicillin, and 100 µg/mL streptomycin in a humidified incubator with 5% CO2 in air at 37 °C. Cell passage was maintained between 42 and 48. The medium was changed every 2 days. […]

SMILES	IC50 (MRC-5 fibroblasts) [µM]	inhibition in vivo at 5 mg/kg [1] [%]	Lesion index (mm) Mean ± SEM [1] [mm]	IC50 (AGS cells) [µM]	IC50 (Hep G2 cells) [µM]	responders at 5 mg/kg [1] [%]	IC50 at 24 h [2] [mM]
C=C1CCC2[C@](C)(CCC[C@]2(C)C(=O)O)[C@H]1CC[C@@H](C)CC(=O)OC1=C(CC=C(C)C)C(=O)c2ccccc2C1=O (stereo partly drawn) [Compound 1, Lapachoyl junicedrate]	210 ± 13	44	15.3 ± 5.0	170 ± 9	57.4 ± 4.4		
C=C1CCC2[C@](C)(CCC[C@]2(C)C(=O)OC)[C@H]1CC[C@@H](C)CC(=O)OC1=C(CC=C(C)C)C(=O)c2ccccc2C1=O (stereo partly drawn) [Compound 2, Lapachoyl junicedrate methyl ester]	741 ± 40	65	8.7 ± 3.9	361 ± 19	208 ± 11	44.4	
C=C1CCC2[C@](C)(CCC[C@]2(C)C(=O)O)[C@H]1CC[C@@H](C)CC(=O)OC1=C(CCC(C)C)C(=O)c2ccccc2C1=O (stereo partly drawn) [Compound 3, Dihydroprenyl lapachoyl junicedrate]	156 ± 9	59	17.9 ± 4.6	89 ± 5	> 1000	0	
C=C1CCC2[C@](C)(CCC[C@]2(C)C(=O)OC)[C@H]1CC[C@@H](C)CC(=O)OC1=C(CCC(C)C)C(=O)c2ccccc2C1=O (stereo partly drawn) [Compound 4, Dihydroprenyl lapachoyl junicedrate methyl ester]	> 1000	55	19.3 ± 5.0	382 ± 26	> 1000	0	
C=C1CCC2[C@](C)(CCC[C@]2(C)C(=O)O)[C@H]1CC[C@@H](C)CC(=O)OC1=C(CCC(C)C)C(=O)C2=C(CCCC2)C1=O (stereo partly drawn) [Compound 5, Dihydroprenyl-5,6,7,8-tetrahydrolapachoyl junicedrate]	69 ± 3	18	20.4 ± 3.6	40 ± 6	27 ± 1	0	
C=C1CCC2[C@](C)(CCC[C@]2(C)C(=O)OC)[C@H]1CC[C@@H](C)CC(=O)OC1=C(CCC(C)C)C(=O)C2=C(CCCC2)C1=O (stereo partly drawn) [Compound 6, Dihydroprenyl-5,6,7,8-tetrahydrolapachoyl junicedrate methyl ester]	> 1000	74	6.5 ± 2.7	> 1000	> 1000	37.5	> 1
CC(C)=CCC1=C(OC(=O)C[C@H](C)CCC2=C(C)CCC3[C@@](C)(C(=O)O)CCC[C@]23C)C(=O)c2ccccc2C1=O (stereo partly drawn) [Compound 7, Lapachoyl Δ8(9) junicedrate]	190 ± 8	54	11.5 ± 4.4	179 ± 9	96 ± 9	12.5	
COC(=O)[C@@]1(C)CCC[C@]2(C)C(CC[C@@H](C)CC(=O)OC3=C(CC=C(C)C)C(=O)c4ccccc4C3=O)=C(C)CCC12 (stereo partly drawn) [Compound 8, Lapachoyl Δ8(9) junicedrate methyl ester]	> 1000	84	3.9 ± 1.9	721 ± 35	379 ± 21	55.6	
